Data from patent publication US11253457B2, “Exopolysaccharide-protein complex, a method of preparing said complex and uses thereof” (INSTITUT UNIV. DE CIÈNCIA I TECNOLOGIA, S.A., priority 2016, dated 2022).

What was measured:
[1] = test system: human hepatocellular carcinoma cell line (HepG2); experiment: MTT tumor cell proliferation assay (HepG2); assay type: cell-based; details: HepG2, positive control
Procedure: The MTT assay was used for measuring the proliferation of the tumor cells. Briefly, human hepatocellular carcinoma cell line (HepG2), human breast adenocarcinoma cell line (MCF7), human lung adenocarcinoma cell line (H1975) and Human melanoma cell line (A375) were seeded at a density of 4×10^4 cells/mL in a volume of 0.1 mL in 96-well plates, respectively. After 24 h, different concentrations of EPCx (1.0, 0.1 and 0.01 mg/ml) were dissolved in the medium was added to each well and incubated for 48 h at 37° C. in a CO2 incubator. 5-Fu (5-fluorouracil) was used as the positive control. After the incubation, 20 μL of MTT solution (5 mg/mL) were added into each well and followed by further incubation for 4-5 h. The culture media were then removed and 100 μL of DMSO was added to each well for 1 h. Absorbance at 570 nm was detected by microplate ELISA reader.

IL-6 [2] = experiment: Real-time PCR of IL-6 mRNA in keratinocytes stressed with LPS; assay type: cell-based, human; details: LPS 10 μg/ml alone
Procedure: (§1) The capacity of EPS to modulate the inflammatory response was evaluated in vitro in human primary keratinocytes (HEK) and human monocyte-like cells (THP-1) stressed with LPS (lipopolysaccharide). The cells were pretreated with different concentrations of exopolysaccharide-protein complex (1, 0.1 and 0.01 mg/ml) for 24 h and with 10 μg/ml of LPS for 24 h. Controls of HEK and THP-1 cells treated only with the different concentrations of exopolysaccharide-protein complex (1.0, 0.1 and 0.01 mg/ml) were also prepared.
(§2) Expression of mRNA for the cytokines IL-6, IL-8, IL-10 and TNF-α was analyzed by real-time PCR and the NF-κB activation was measured using a luciferase reporter gene assay.
(§3) Real-time PCR: Total RNA was extracted with the RNA Isolation Kit (ThermoFischer Scientific) according to the manufacturer's recommendations. 1 ng of RNA was reverse transcribed into complementary DNA (cDNA) using Superscript One-Step RT-PCR kit with platinum Taq according to the instructions (Invitrogen). Quantification rests on the measure of threshold cycles (CT), which are measured at the beginning of the exponential phase of the reaction and on the normalization of the internal standard curve obtained with the reference gene.

IL-8 [3] = experiment: Real-time PCR of IL-8 mRNA in keratinocytes stressed with LPS; assay type: cell-based, human; details: LPS 10 μg/ml alone
Procedure: as §1, §2, §3

TNF-α [4] = experiment: Real-time PCR of TNF-α mRNA in keratinocytes stressed with LPS; assay type: cell-based, human; details: LPS 10 μg/ml alone
Procedure: as §1, §2, §3

IL-10 [5] = experiment: Real-time PCR of IL-10 mRNA in keratinocytes stressed with LPS; assay type: cell-based, human; details: LPS 10 μg/ml alone
Procedure: as §1, §2, §3

IL-6 [6] = experiment: Real-time PCR of IL-6 mRNA in THP-1 cells stressed with LPS; assay type: cell-based; details: human monocyte-like cells (THP-1), LPS 10 μg/ml alone
Procedure: as §1, §2, §3

IL-8 [7] = experiment: Real-time PCR of IL-8 mRNA in THP-1 cells stressed with LPS; assay type: cell-based; details: human monocyte-like cells (THP-1), LPS 10 μg/ml alone
Procedure: as §1, §2, §3

TNF-α [8] = experiment: Real-time PCR of TNF-α mRNA in THP-1 cells stressed with LPS; assay type: cell-based; details: human monocyte-like cells (THP-1), LPS 10 μg/ml alone
Procedure: as §1, §2, §3

IL-10 [9] = experiment: Real-time PCR of IL-10 mRNA in THP-1 cells stressed with LPS; assay type: cell-based; details: human monocyte-like cells (THP-1), LPS 10 μg/ml alone
Procedure: as §1, §2, §3

Compound | IC50 [1] [µM] | Gene expression (mRNA, real-time PCR) IL-6 (IL-6 [2]) | Gene expression (mRNA, real-time PCR) IL-8 (IL-8 [3]) | Gene expression (mRNA, real-time PCR) TNF-α (TNF-α [4]) | Gene expression (mRNA, real-time PCR) IL-10 (IL-10 [5]) | Gene expression (mRNA, real-time PCR) IL-6 (IL-6 [6]) | Gene expression (mRNA, real-time PCR) IL-8 (IL-8 [7]) | Gene expression (mRNA, real-time PCR) TNF-α (TNF-α [8]) | Gene expression (mRNA, real-time PCR) IL-10 (IL-10 [9])
O=c1[nH]cc(F)c(=O)[nH]1 [5-fluorouracil] | 10 | – | – | – | – | – | – | – | –
lipopolysaccharide [LPS] | – | 62 | 59 | 67 | 7 | 73 | 82 | 67 | 5
